# Laboratory results: patent US20230146395A1, “Substituted Pyrimidines and Uses Thereof” (Verge Analytics, Inc., priority 2020, published 2023)
# How the values were obtained:
# [1] = biological target: T1, Full length human recombinant PIKFYVE (Homo sapiens, UniProt Q9Y2I7); assay: Inhibition of PIKfyve (microfluidic electrophoresis kinase assay, PI3P/PS substrate); format: biochemical; conditions: 12 concentrations
# T1 construct: Full length human recombinant PIKFYVE; purchased Carna Biosciences (Kobe, Japan); host or cells: baculovirus expression system
# Procedure, shortened: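 GST-tagged full-length human PIKFYVE (baculovirus; 2 nM) with fluorescent PI3P/PS (1 μM PI3P) and […] in pH 7.5 HEPES with Mg2+/Mn2+, 1% DMSO, 3 h at room temperature. PI(3,5)P product/substrate ratio read by microfluidic electrophoresis; 12-point % inhibition versus no-enzyme and DMSO controls.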
# [2] = biological target: T2, PI3Kα (Homo sapiens, UniProt P42336); assay: Inhibition of PI3K isoforms: PI3Kα (microfluidic electrophoresis kinase assay, PIP2/PS substrate); format: biochemical; conditions: p110α/p85α, ATP 90 μM; read-out: PI3Ka IC50
# T2 construct: Full-length N-terminal; FLAG (N); host or cells: SF9 cells (baculovirus)
# Method: The kinase substrate was prepared by mixing and sonicating fluorescently-labeled phosphatidylinositol 4,5-phosphate (PIP2) with phospho-L-serine (PS) at 1:20 ratio in 50 mM HEPES buffer pH7.5.
# The kinase reactions were assembled in 384-well plates (Greiner) in a total volume of […] as follows. The kinase proteins were pre-diluted in an assay buffer comprising 50 mM HEPES, pH 7.5, 0.012% CHAPS, 1 mM DTT, 10 mM Na3VaO4, 10 mM 3-GP, 3 mM MgCl2, and 40 mM NaCl2, and dispensed into a 384-well plate (10 μL per well). Test compounds were serially pre-diluted in DMSO and added to the protein samples by acoustic dispensing (Labcyte Echo). The concentration of DMSO was equalized to 1% in all samples. All test compounds were tested at 12 concentrations. The control samples (0%-inhibition in the absence of inhibitor, DMSO only) and 100%-inhibition (in the absence of enzyme) were assembled in replicates of four and were used to calculate %-inhibition in the presence of test compounds. The reactions were initiated by addition of 10 μL of the PIP2/PS substrate supplemented with ATP. The final concentration of enzymes was 0.5 nM (PI3Kα), 1 nM (PI3Kβ), 10 nM (PI3Kγ), and 0.25 nM (PI3Kδ). The final concentration of ATP was 90 μM (PI3Kα), 60 μM (PI3Kβ), 100 μM (PI3Kγ), and 90 μM (PI3Kδ). The final concentration of PIP2/PS substrate was 1 μM (PIP2). The kinase reactions were allowed to proceed for 3 h at room temperature. Following incubation, the reactions were quenched by addition of 50 μL of termination buffer (100 mM HEPES, pH 7.5, 0.01% Triton X-100, 20 mM EDTA). Terminated plates were analyzed on a microfluidic electrophoresis instrument (Caliper LabChip® 3000, Caliper Life Sciences/Perkin Elmer). The change in the relative fluorescence intensity of the PI(4,5)P substrate and PI(3,4,5)P product peaks was measured. The activity in each test sample was determined as the product to sum ratio (PSR): P/(S+P), where P is the peak height of the product, and S is the peak height of the substrate. Percent inhibition (Pinh) was determined using the following equation:
# Pinh=(PSR0% inh−PSRcompound)/(PSR0% inh−PSR100% inh)*100
# in which PSRcompound is the product/sum ratio in the presence of compound, PSR0% inh is the product/sum ratio in the absence of compound, and the PSR100% inh is the product/sum ratio in the absence of the enzyme.
# [3] = biological target: T3, PI3Kδ (Homo sapiens, UniProt O00329); assay: Inhibition of PI3K isoforms: PI3Kδ (microfluidic electrophoresis kinase assay, PIP2/PS substrate); format: biochemical; conditions: p110δ/p85α, ATP 90 μM; read-out: PI3Kd IC50
# T3 construct: Full-length N-terminal; GST (N); host or cells: SF9 cells (baculovirus)
# Method: The kinase substrate was prepared by mixing and sonicating fluorescently-labeled phosphatidylinositol 4,5-phosphate (PIP2) with phospho-L-[…]:20 ratio in 50 mM HEPES buffer pH7.5. The kinase reactions were assembled in 384-well plates (Greiner) in a total volume of […] as follows. The kinase proteins were pre-diluted in an assay buffer comprising 50 mM HEPES, pH 7.5, 0.012% CHAPS, 1 mM DTT, 10 mM Na3VaO4, 10 mM 3-GP, 3 mM MgCl2, and 40 mM NaCl2, and dispensed into a 384-well plate (10 μL per well). Test compounds were serially pre-diluted in DMSO and added to the protein samples by acoustic dispensing (Labcyte Echo). The concentration of DMSO was equalized to 1% in all samples. All test compounds were tested at 12 concentrations. The control samples (0%-inhibition in the absence of inhibitor, DMSO only) and 100%-inhibition (in the absence of enzyme) were assembled in replicates of four and were used to calculate %-inhibition in the presence of test compounds. The reactions were initiated by addition of 10 μL of the PIP2/PS substrate supplemented with ATP. The final concentration of enzymes was 0.5 nM (PI3Kα), 1 nM (PI3Kβ), 10 nM (PI3Kγ), and 0.25 nM (PI3Kδ). The final concentration of ATP was 90 μM (PI3Kα), 60 μM (PI3Kβ), 100 μM (PI3Kγ), and 90 μM (PI3Kδ). The final concentration of PIP2/PS substrate was 1 μM (PIP2). The kinase reactions were allowed to proceed for 3 h at room temperature. Following incubation, the reactions were quenched by addition of 50 μL of termination buffer (100 mM HEPES, pH 7.5, 0.01% Triton X-100, 20 mM EDTA). Terminated plates were analyzed on a microfluidic electrophoresis instrument (Caliper LabChip® 3000, Caliper Life Sciences/Perkin Elmer). The change in the relative fluorescence intensity of the PI(4,5)P substrate and PI(3,4,5)P product peaks was measured. The activity in each test sample was determined as the product to sum ratio (PSR): P/(S+P), where P is the peak height of the product, and S is the peak height of the substrate. Percent inhibition (Pinh) was determined using the following equation: Pinh=(PSR0% inh-PSRcompound)/(PSR0% inh-PSR100% inh)*100 in which PSRcompound is the product/sum ratio in the presence of compound, PSR0% inh is the product/sum ratio in the absence of compound, and the PSR100% inh is the product/sum ratio in the absence of the enzyme. […] (Pinh versus compound concentration) were fitted by a four-parameter sigmoid dose-response model using XLfit software (IDBS).
# [4] = test system: ALS patient (SOD1 A4V) iPSC derived motor neurons; assay: iPSC MN Survival assay (GFP imaging, six days, hazard ratio from Cox regression); format: cell-based; conditions: Homo sapiens, survival rescue, read-out: C9 iPSC MN Significant survival rescue EC50
# [5] = test system: HEK 293T transfected with plasmids containing TDP-43 Q331K mutation; assay: HEK/TDP Survival assay (Cell-Titer-Glo, 48 hrs, maximal effect of rescue); format: cell-based; conditions: Homo sapiens, HEK 293T with TDP-43 Q331K, (n) in brackets
# Method: HEK/TDP Survival assay: Immortalized human embryonic kidney 293T (HEK 293T) were transfected with plasmids containing TDP-43 Q331K mutation, resulting in an increase in cell death that is biologically relevant to ALS patients. Cell death is measured as reductions in the amount of ATP, an indicator of metabolically active cells, that is quantified by a luminescence Cell-Titer-Glo® (CTG) reagent. Compounds are evaluated in this model for changes in CTG compared to a no treatment group. Increased signal indicates improved survival (rescue) and decreased signal indicates decreased survival.
# Cell rescue was measured in a 96-well format with eight different concentrations of the test compound over 48 hours (hrs) with 6 replicates. The Promega Cell-Titer-Glo® Luminescent Cell Viability Assay was used to quantify ATP, an indicator of metabolically active cells (see protocol: https://www.promega.com/-/media/files/resources/protocols/technical-manuals/101/celltiterglo-2-0-assay-protocol.pdf?la=en). The luminescence signal was detected using the PerkinElmer EnVision or Molecular Devices SpectraMax.
# The effect of a compound at a given dose on cell viability was determined using a three step procedure. First, Hedge's g for the Cell Titer-Glo luminescence values using six untreated wells on every plate as a control was calculated. […] Finally, values from all compound-dose pairs were corrected for multiple hypothesis testing using the Empirical Bayes framework of Stephens, M. (False discovery rates: a new deal, Biostatistics, 18 [2], 2017, 275-294) yielding credible intervals for the measured effect and associated s values.
# Briefly, this method computes a local false sign rate for each experiment. Analogous to the local false discovery rate of Efron, B. (Size, power and false discovery rates, Ann. Statist. 35 [4], 2007, 1351-1377) this value measures the confidence in the sign of each effect (rather than confidence in each effect being non-zero). The s values reported in the previous figures are the expected fraction of errors if estimating the sign of all effects with greater absolute local false sign rate, defined in analogy to the q value of Storey, JD (The positive false discovery rate: a Bayesian interpretation and the q-value, Ann. Statist. 31 [6] 2003, 2013-2035).
# Drugs that yielded signed log s values greater than 3 were considered hits. This threshold was determined by a separate calibration experiment in which Cell Titer-Glo® was measured in blank plates consisting of untreated cells to assess the noise inherent in the assay. Data are presented as the maximal effect of rescue obtained from the dose-response curve.
# T3 sequence (O00329 whole entry, canonical isoform): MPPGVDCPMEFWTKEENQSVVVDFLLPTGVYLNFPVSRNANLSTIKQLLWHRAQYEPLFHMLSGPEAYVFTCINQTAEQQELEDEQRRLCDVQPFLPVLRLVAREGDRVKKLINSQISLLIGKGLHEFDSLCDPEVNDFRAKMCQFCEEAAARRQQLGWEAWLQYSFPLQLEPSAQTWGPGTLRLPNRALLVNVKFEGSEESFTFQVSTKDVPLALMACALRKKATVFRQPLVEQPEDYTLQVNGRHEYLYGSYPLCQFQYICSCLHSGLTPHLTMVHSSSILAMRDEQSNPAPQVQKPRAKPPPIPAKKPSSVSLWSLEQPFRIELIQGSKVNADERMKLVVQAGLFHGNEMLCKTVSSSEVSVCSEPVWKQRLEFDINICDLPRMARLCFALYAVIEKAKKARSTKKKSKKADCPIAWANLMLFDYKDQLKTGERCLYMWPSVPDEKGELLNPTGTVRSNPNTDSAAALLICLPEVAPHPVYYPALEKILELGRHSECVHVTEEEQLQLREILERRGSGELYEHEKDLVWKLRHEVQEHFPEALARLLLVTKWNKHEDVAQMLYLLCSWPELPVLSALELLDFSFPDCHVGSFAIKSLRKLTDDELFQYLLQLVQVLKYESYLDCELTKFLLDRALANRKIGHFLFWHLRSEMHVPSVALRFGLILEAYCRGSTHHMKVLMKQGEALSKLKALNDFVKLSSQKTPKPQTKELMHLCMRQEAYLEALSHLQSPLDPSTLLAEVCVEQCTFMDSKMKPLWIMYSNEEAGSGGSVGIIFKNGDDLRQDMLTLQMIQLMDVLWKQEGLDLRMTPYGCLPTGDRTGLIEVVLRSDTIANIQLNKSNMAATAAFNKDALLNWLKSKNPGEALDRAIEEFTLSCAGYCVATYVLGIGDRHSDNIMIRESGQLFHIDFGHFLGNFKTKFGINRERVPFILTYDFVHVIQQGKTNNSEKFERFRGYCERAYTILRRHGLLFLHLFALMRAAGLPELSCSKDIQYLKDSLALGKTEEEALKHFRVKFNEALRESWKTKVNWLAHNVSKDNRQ
# T3 sequence (P27986 whole entry partner, canonical isoform): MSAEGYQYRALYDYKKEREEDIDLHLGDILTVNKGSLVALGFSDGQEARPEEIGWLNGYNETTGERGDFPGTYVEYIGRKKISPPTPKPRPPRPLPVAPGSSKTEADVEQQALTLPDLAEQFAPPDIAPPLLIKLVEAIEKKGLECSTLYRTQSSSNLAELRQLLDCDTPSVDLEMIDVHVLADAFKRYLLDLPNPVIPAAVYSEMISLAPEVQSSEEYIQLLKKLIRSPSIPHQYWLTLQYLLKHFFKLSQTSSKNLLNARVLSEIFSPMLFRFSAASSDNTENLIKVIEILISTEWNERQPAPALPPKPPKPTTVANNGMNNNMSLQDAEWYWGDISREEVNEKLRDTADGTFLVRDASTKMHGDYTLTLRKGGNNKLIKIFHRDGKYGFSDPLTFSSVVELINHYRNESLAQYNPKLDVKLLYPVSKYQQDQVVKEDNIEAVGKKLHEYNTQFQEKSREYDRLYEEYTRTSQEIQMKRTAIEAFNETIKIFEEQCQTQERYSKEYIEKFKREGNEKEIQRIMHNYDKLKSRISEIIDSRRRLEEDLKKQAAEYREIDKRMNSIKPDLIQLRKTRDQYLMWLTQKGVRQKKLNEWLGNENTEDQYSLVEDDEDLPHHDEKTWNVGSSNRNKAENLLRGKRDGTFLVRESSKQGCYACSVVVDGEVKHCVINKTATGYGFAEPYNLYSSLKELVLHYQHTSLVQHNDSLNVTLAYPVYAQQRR
# T2 sequence (P42336 whole entry, canonical isoform): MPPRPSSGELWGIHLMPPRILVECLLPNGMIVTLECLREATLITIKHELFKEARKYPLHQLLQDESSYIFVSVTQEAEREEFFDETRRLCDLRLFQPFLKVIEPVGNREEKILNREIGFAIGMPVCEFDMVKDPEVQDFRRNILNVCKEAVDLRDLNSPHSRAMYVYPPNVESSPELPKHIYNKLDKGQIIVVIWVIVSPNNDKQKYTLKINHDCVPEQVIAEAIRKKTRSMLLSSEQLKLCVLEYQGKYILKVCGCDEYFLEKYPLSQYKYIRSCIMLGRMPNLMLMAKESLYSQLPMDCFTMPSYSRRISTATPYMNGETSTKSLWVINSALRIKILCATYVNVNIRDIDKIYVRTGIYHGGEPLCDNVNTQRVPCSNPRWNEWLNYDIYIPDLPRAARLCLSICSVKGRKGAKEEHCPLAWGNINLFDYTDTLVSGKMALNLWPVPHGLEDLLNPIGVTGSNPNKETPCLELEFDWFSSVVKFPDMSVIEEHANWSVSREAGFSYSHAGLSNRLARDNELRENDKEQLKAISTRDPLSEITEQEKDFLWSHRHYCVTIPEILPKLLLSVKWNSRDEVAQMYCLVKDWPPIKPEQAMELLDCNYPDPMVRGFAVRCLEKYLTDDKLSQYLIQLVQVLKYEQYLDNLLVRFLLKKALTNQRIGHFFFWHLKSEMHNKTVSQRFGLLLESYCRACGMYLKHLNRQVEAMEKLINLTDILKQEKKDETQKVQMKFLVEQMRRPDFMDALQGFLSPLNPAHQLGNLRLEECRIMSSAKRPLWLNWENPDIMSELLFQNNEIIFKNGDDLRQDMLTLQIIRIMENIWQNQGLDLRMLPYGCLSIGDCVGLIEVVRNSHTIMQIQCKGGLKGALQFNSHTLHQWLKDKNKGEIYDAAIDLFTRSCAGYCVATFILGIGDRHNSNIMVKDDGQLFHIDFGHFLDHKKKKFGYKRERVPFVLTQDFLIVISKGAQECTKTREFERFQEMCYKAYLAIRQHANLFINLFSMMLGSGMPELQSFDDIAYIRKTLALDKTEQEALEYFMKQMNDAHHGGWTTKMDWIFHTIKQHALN
# T2 sequence (P27986 whole entry partner, canonical isoform): as the sequence (P27986 whole entry partner, canonical isoform) above
# T1 sequence (Q9Y2I7 whole entry): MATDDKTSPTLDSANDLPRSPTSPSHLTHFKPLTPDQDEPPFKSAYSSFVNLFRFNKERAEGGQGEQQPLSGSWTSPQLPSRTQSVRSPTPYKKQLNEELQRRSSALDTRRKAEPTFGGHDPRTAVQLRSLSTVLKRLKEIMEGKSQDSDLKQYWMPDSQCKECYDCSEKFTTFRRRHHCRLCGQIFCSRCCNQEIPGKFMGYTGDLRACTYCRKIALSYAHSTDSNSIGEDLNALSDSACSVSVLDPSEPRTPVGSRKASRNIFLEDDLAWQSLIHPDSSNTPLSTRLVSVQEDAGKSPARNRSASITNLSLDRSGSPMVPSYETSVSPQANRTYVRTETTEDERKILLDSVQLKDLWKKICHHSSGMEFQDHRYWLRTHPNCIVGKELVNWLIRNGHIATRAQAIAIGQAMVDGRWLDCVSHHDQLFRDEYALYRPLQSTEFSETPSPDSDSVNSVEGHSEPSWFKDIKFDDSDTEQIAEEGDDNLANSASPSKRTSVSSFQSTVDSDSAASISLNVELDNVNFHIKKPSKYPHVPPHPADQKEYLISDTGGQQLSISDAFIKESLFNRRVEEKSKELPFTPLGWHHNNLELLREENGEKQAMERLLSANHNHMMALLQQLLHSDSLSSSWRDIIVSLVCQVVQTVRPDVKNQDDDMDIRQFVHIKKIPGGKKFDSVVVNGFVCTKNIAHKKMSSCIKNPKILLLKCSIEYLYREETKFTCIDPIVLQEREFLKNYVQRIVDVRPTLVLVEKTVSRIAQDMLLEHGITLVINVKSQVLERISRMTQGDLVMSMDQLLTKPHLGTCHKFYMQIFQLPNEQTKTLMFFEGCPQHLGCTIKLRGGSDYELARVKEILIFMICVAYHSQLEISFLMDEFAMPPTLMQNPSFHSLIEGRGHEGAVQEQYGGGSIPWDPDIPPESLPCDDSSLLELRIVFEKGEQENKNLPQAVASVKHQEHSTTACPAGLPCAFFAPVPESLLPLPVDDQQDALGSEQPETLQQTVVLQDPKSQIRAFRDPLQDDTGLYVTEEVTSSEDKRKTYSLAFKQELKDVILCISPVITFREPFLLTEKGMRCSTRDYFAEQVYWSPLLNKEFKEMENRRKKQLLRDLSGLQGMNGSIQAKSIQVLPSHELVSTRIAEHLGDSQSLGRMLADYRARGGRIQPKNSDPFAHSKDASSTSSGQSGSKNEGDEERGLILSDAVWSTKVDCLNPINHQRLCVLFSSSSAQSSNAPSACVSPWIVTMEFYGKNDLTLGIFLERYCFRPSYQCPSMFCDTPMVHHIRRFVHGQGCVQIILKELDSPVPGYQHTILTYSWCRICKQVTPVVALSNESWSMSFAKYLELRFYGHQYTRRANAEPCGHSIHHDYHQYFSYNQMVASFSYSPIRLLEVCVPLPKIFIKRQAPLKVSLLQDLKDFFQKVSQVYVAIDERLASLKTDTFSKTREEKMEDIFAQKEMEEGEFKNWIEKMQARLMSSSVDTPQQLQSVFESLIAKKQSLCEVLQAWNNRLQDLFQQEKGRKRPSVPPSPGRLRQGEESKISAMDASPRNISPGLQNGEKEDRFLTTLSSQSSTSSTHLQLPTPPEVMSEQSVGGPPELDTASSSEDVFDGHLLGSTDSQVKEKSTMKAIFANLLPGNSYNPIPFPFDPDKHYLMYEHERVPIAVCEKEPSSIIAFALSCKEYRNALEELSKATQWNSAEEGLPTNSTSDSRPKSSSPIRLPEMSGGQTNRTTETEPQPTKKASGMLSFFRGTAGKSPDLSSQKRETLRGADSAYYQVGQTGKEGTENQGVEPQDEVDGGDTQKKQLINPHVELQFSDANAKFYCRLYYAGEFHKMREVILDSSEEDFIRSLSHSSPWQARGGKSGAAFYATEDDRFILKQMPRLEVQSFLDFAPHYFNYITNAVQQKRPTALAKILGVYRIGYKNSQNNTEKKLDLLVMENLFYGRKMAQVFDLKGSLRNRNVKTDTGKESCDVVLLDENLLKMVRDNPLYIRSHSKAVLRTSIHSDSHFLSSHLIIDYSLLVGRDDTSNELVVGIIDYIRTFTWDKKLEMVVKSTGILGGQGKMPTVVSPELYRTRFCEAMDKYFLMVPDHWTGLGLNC
IC50 [1],IC50 [2],IC50 [3],SMILES,EC50 [4],EC50 [5]
5500 nM,5520 nM,454 nM,"CNC(=O)c1cc2nc(Nc3cc(C4CCC4)n[nH]3)nc(N3CCOCC3)c2o1 [Compound 80, 2-((5-cyclobutyl-1H-pyrazol-3-yl)amino)-N-methyl-4-morpholinofuro[3,2-d]pyrimidine-6-carboxamide, hydrogen chloride]",,
0.8 nM,,,"Cc1cccc(-c2cc(Nc3nc(N4CCOCC4)c4oc(-c5ccncc5)cc4n3)[nH]n2)c1 [Compound 3, 4-morpholino-N-[5-(m-tolyl)-1H-pyrazol-3-yl]-6-(4-pyridyl)furo[3,2-d]pyrimidin-2-amine, hydrogen chloride]",3000 nM,16 nM
≥ 20000 nM,3480 nM,,"CCc1cc(Nc2nc(N3CCOCC3)c3oc(C(=O)NC)cc3n2)[nH]n1 [Compound 87, 2-((5-ethyl-1H-pyrazol-3-yl)amino)-N-methyl-4-morpholinofuro[3,2-d]pyrimidine-6-carboxamide, hydrogen chloride]",,
142 nM,4140 nM,164 nM,"c1cc(-c2cc3nc(Nc4cc(C5CCC5)n[nH]4)nc(N4CCOCC4)c3o2)ccn1 [Compound 70, N-(5-cyclobutyl-1H-pyrazol-3-yl)-4-morpholino-6-(pyridin-4-yl)furo[3,2-d]pyrimidin-2-amine, hydrogen chloride]",,
1.9 nM,,,"Cc1cccc(-c2cnn(-c3nc(N4CCOCC4)c4oc(C(=O)NCC5COC5)cc4n3)c2)c1 [Compound 107, 4-morpholino-N-(oxetan-3-ylmethyl)-2-(4-(m-tolyl)-1H-pyrazol-1-yl)furo[3,2-d]pyrimidine-6-carboxamide]",1000 nM,59.5 nM
4090 nM,3720 nM,,"CNC(=O)c1cc2nc(Nc3cc(C4CCCC4)n[nH]3)nc(N3CCOCC3)c2o1 [Compound 83, 2-((5-cyclopentyl-1H-pyrazol-3-yl)amino)-N-methyl-4-morpholinofuro[3,2-d]pyrimidine-6-carboxamide, hydrogen chloride]",,
12.1 nM,,,"Cc1cccc(-c2cnn(-c3nc(N4CCOCC4)c4oc(-c5cccnc5)cc4n3)c2)c1 [Compound 102, 4-morpholino-6-(pyridin-3-yl)-2-(4-(m-tolyl)-1H-pyrazol-1-yl)furo[3,2-d]pyrimidine]",1000 nM,43 nM
≥ 20000 nM,4530 nM,218 nM,"CNC(=O)c1cc2nc(Nc3cc(CC4CCCC4)n[nH]3)nc(N3CCOCC3)c2o1 [Compound 84, 2-((5-(cyclopentylmethyl)-1H-pyrazol-3-yl)amino)-N-methyl-4-morpholinofuro[3,2-d]pyrimidine-6-carboxamide, hydrogen chloride]",,
2 nM,,,"CCNC(=O)c1cc2nc(Nc3cc(-c4ccccc4)[nH]n3)nc(N3CCOCC3)c2o1 [Compound 56, N-ethyl-4 morpholino-2-[(5-phenyl-1H-pyrazol-3-yl)amino]furo[3,2-d]pyrimidine-6-carboxamide, hydrogen chloride]",1000 nM,15 nM
1.2 nM,,,"Cc1cccc(-c2cnn(-c3nc(N4CCOCC4)c4oc(C(=O)NC5CC5)cc4n3)c2)c1 [Compound 100, N-cyclopropyl-4-morpholino-2-(4-(m-tolyl)-1H-pyrazol-1-yl)furo[3,2-d]pyrimidine-6-carboxamide]",300 nM,18 nM
